These results are taken from BindingDB's records for doi:10.1016/j.bioorg.2016.12.011 (University of Karachi, 2017).

By IC50 is commonly meant the concentration at which inhibition is half-maximal. A high value points to weaker potency in that assay.

The experiment deals with T1, Beta-glucuronidase (Bos taurus, UniProt A3KMY8).
T1 sequence (A3KMY8 whole entry): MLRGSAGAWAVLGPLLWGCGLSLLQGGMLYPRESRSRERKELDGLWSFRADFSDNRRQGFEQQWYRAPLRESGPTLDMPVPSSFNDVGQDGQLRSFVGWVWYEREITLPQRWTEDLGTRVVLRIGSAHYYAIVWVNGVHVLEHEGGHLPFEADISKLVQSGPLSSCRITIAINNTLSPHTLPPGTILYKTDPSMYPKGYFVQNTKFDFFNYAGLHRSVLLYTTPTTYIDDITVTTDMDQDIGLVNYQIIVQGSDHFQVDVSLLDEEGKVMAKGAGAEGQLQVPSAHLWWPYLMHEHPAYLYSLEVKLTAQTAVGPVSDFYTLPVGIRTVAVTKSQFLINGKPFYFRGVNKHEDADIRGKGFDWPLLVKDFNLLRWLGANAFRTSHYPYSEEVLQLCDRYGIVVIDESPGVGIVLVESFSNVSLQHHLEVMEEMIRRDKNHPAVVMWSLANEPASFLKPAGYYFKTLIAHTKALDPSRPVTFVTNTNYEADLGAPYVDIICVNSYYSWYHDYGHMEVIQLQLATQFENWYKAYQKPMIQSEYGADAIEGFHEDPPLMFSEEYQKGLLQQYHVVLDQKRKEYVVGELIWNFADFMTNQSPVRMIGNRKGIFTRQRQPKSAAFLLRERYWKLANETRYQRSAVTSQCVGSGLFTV
The experiment can be described thus: β-Glucuronidase Inhibition Assay. As for the experimental part:
Total volume of reaction was 250 μL. […] Reaction mixture comprised of 0.1 M acetate buffer (185 μL), test compound solution in DMSO (5 μL), enzyme solution (10 μL), was incubated for 30 min at 37 °C. […] All assays were run in triplicate.
For `Cc1ccc(-c2csc(N/N=C/c3ccc4ccc5cccc6ccc3c4c56)n2)cc1` [(E)-2-(2-(Pyren-1-ylmethylene)hydrazinyl)-4-(p-tolyl)thiazole (4)], it took 40.1 µM to reach half-maximal inhibition (IC50).

`NC(=S)N/N=C/c1ccc2ccc3cccc4ccc1c2c34` [(E)-2-(Pyren-1-ylmethylene)hydrazine-1-carbothioamide (2)] registered an IC50 of 5.5 µM.

In the case of `Clc1ccc(-c2csc(C/C=C/c3ccc4ccc5cccc6ccc3c4c56)n2)cc1` [(E)-4-(4-Chlorophenyl)-2-(3-(pyren-1-yl)allyl)thiazole (10)], it took 11.1 µM to reach half-maximal inhibition (IC50). The compound `COc1ccc(-c2csc(N/N=C/c3ccc4ccc5cccc6ccc3c4c56)n2)cc1` [(E)-4-(4-Methoxyphenyl)-2-(2-(pyren-1-ylmethylene)hydrazinyl)thiazole (3)] registered an IC50 of 24.4 µM. `C(=N\Nc1nc(-c2ccc(-c3ccccc3)cc2)cs1)/c1ccc2ccc3cccc4ccc1c2c34` [(E)-4-([1,10-Biphenyl]-4-yl)-2-(2-(pyren-1-ylmethylene)hydrazinyl)thiazole (5)] registered a 50% inhibitory concentration (IC50) of 36.1 µM.
